In patent EP1311531B1, “STEROID DERIVED ANTIBIOTICS” (Brigham Young University, priority 2000, dated 2002):
≈ marks a conversion by molar mass, not a printed value. Where two headings read alike, the source gives them in different places.

How the values were obtained:
E. coli (ATCC 10798) [1] = experiment: MIC and MBC measurement; assay type: cell-based, Escherichia coli
Protocol: (§1) General: Microorganisms. Reference strains were purchased from the American Type Culture Collection (Rockville, MD) or Bactrol disks from Difeo Laboratories (Detroit, MI). […] Bacterial strains were maintained on Mueller-Hinton agar plates, and Candida albicans was maintained on Sabouraud Dextrose agar plates.
(§2) Aliquots (20 mL) of the homogeneous solution were then poured in sterile plastic petri dishes (100 x 15 mm, Fisher Scientific). Solutions of compounds were made by dissolving the HCl salt of the respective compound into an appropriate amount of deionized and sterilized water followed by microfiltration.
(§3) Aliquots of 1 mL of the suspension were added to test tubes containing 1 mL TSB and incrementally varied concentrations of cholic acid derivatives and/or erythromycin or novobiocin. […] Additionally, an alliquot from each of the samples showing no measurable turbidity was subcultured on TSA plates (alliquots were diluted to provide fewer than 300 CFU). Colonies that grew on the subculture after overnight incubation were counted and the number of CFU/mL in the samples were calculated. The calculated values were compared to the number of CFU/mL in the original inoculum.

E. coli (ATCC 10798) [2] = experiment: Sensitization to erythromycin or novobiocin (outer membrane permeabilization, FIC); assay type: cell-based, Escherichia coli; conditions: for (a) Concentration required to lower the MIC of erythromycin from 70 to 1 µg/mL / (b) MBC with 1 µg/mL erythromycin / (d) Concentration required to lower the MIC of novobiocin from >500 to 1 µg/mL / FIC^c (FIC values with erythromycin) / FIC^c (FIC values with novobiocin): Table 9, Escherichia coli (ATCC 10798); for concentration required to lower the MIC of erythromycin from 70 µg/mL to 1 µg/mL: Table 2; for MBC: Escherichia coli
Protocol: (§4) FICs can be performed by checkerboard titrations of compounds in one dimension of a microtiter plate, and of antibiotics in the other dimension, for example. The FIC is calculated by looking at the impact of one antibiotic on the MIC of the other and vice versa. […] Preferably, an FIC of less than 0.5 is obtained for synergism. As used herein, FIC can be determined as follows: FIC = (MIC(compound in combination))/(MIC(compound alone)) + (MIC(antibiotic in combination))/(MIC(antibiotic alone)) [formula]
(§5) Aliquots of 1 mL of the suspension were added to test tubes containing 1 mL TSB and incrementally varied concentrations of cholic acid derivatives and/or erythromycin or novobiocin. In the sensitization experiments, erythromycin or novobiocin were added 15 minutes later than the cholic acid derivatives. The samples were subjected to stationary incubation at 37°C for 24 hours. Sample turbidity was determined by measuring absorption at 760 nm (HP 8453 UV-Visible Chemstation, Hewlett Packard). Additionally, an alliquot from each of the samples showing no measurable turbidity was subcultured on TSA plates (alliquots were diluted to provide fewer than 300 CFU). Colonies that grew on the subculture after overnight incubation were counted and the number of CFU/mL in the samples were calculated. The calculated values were compared to the number of CFU/mL in the original inoculum.
They were also tested for the ability to permeabilize the outer membrane of Gram-negative bacteria, causing sensitization to hydrophobic antibiotics that cannot cross the outer membrane. The permeabilization of the outer membrane was measured using erythromycin and novobiocin.

[3] = test system: Pseudomonas aeruginosa ATCC 27853; experiment: MIC and MBC measurement; assay type: cell-based
Protocol: as §1, §2, §3

[4] = test system: Pseudomonas aeruginosa ATCC 27853; experiment: Sensitization to erythromycin, novobiocin or rifampicin (permeabilization, FIC); assay type: cell-based; conditions: Table 7; P. aureginosa (ATCC 27853); with erythromycin
Protocol: as §4, §5
Concentrations of 0.5, 1.0 or 3.0 µg/mL of these antibiotics were used, and the concentrations of the cholic acid derivatives required to inhibit bacterial growth of Gram-negative strains were determined.

[5] = test system: Escherichia coli ATCC 25922; experiment: MIC and MBC measurement; assay type: cell-based; conditions: Escherichia coli, ATCC25922, antibiotic alone; E. coli (ATCC 25922); read-out: MIC
Text: General: Microorganisms. Reference strains were purchased from the American Type Culture Collection (Rockville, MD) or Bactrol disks from Difeo Laboratories (Detroit, MI). The following specific ATCC strains were used: 10798 Escherichia coli, 25922 Escherichia coli, 13883 Klebsiella pneumoniae, 27853 Pseudomonas aeruginosa, 14028 Salmonella typhimurium, 29212 Enterococcus faecalis, 25923 Staphylococcus aureus, 19615 Streptococcus pyogenes, and 90028 Candida albicans. Bacterial strains were maintained on Mueller-Hinton agar plates, and Candida albicans was maintained on Sabouraud Dextrose agar plates.
Tryptic soy broth (TSB) was made by dissolving 27.5 grams of tryptic soy broth without dextrose (DIFCO Laboratories) in 1 liter of deionized water and sterilizing at 121 °C for 15 minutes. Solid agar (TSA) plates were made by dissolving 6.4 grams of tryptic soy broth and 12 grams of agar (purified grade, Fischer Scientific) in 800 mL of deionized water and sterilizing at 121 °C for 20 minutes. Aliquots (20 mL) of the homogeneous solution were then poured in sterile plastic petri dishes (100 x 15 mm, Fisher Scientific). Solutions of compounds were made by dissolving the HCl salt of the respective compound into an appropriate amount of deionized and sterilized water followed by microfiltration.
as §5, with “inoculum. […]” for “inoculum.”

[6] = ATCC10798, Table 9, Escherichia coli (ATCC 10798), read-out: MBC
[7] = ATCC10798, Table 9, Escherichia coli (ATCC 10798), read-out: MIC
[8] = Escherichia coli, ATCC10798, Table 1, E. coli (ATCC 10798), read-out: MIC
[9] = ATCC27853, Table 6, P. aureginosa (ATCC 27853)
[10] = E. coli (ATCC 10798), with erythromycin
[11] = Escherichia coli, ATCC10798, Table 1, E. coli (ATCC 10798), read-out: MBC
[12] = Table 9, Escherichia coli (ATCC 10798)
[13] = ATCC10798, Table 2, E. coli (ATCC 10798), with erythromycin
[14] = Escherichia coli, ATCC10798, antibiotic alone, E. coli (ATCC 10798), read-out: MIC
[15] = ATCC27853, antibiotic alone, P. aureginosa (ATCC 27853)

MIC (E. coli (ATCC 10798) [1]; [7])	MIC (E. coli (ATCC 10798) [1]; [8])	SMILES	MBC (E. coli (ATCC 10798) [1]; [6])	(a) Concentration required to lower the MIC of erythromycin from 70 to 1 µg/mL (E. coli (ATCC 10798) [2])	(b) MBC with 1 µg/mL erythromycin (E. coli (ATCC 10798) [2])	(d) Concentration required to lower the MIC of novobiocin from >500 to 1 µg/mL (E. coli (ATCC 10798) [2])	FIC^c (FIC values with erythromycin) (E. coli (ATCC 10798) [2])	FIC^c (FIC values with novobiocin) (E. coli (ATCC 10798) [2])	concentration required to lower the MIC of erythromycin from 70 µg/mL to 1 µg/mL (E. coli (ATCC 10798) [2]; [10])	other results
		C[C@H](CCCOS(=O)(=O)O)[C@H]1CC[C@H]2[C@@H]3[C@H](OCCCN)C[C@@H]4C[C@H](OCCCN)CC[C@]4(C)[C@H]3C[C@H](OCCCN)[C@]12C [Compound 132]								MIC (E. coli (ATCC 10798) [1]; Escherichia coli, ATCC10798, E. coli (ATCC 10798), read-out: MIC): 60 µg/mL (≈ 92.9 µM); concentration required to lower the MIC of erythromycin to 1 µg/mL (E. coli (ATCC 10798) [2]; E. coli (ATCC 10798)): 4.0 µg/mL
30 µg/mL (≈ 51.7 µM)		COCCC[C@@H](C)[C@H]1CC[C@H]2[C@@H]3[C@H](OCCCN)C[C@@H]4C[C@H](OCCCN)CC[C@]4(C)[C@H]3C[C@H](OCCCN)[C@]12C [Compound 111]	33 µg/mL (≈ 56.9 µM)	1.0 µg/mL	20 µg/mL	2.0 µg/mL	0.048	0.069		
	46 µg/mL (≈ 73.4 µM)	C[C@H](CCCN(C)Cc1ccccc1)[C@H]1CC[C@H]2[C@@H]3[C@H](OCCN)C[C@@H]4C[C@@H](OCCN)CC[C@]4(C)[C@H]3C[C@H](OCCN)[C@]12C [Compound 8]							10 µg/mL	MIC [3, 9]: 50 µg/mL (≈ 79.7 µM); concentration required to lower the MIC of erythromycin from 240 µg/mL to 5 µg/mL [4]: 40 µg/mL
	3 µg/mL (≈ 4.42 µM)	CCCCCCCCOCCC[C@@H](C)[C@H]1CC[C@H]2[C@@H]3[C@H](OCCCN)C[C@@H]4C[C@H](OCCCN)CC[C@]4(C)[C@H]3C[C@H](OCCCN)[C@]12C [Compound 9]		3.0 µg/mL	3.0 µg/mL		1.0		3 µg/mL	MBC (E. coli (ATCC 10798) [1]; [11]): 10 µg/mL (≈ 14.7 µM); MBC (E. coli (ATCC 10798) [1]; [12]): 10 µg/mL (≈ 14.7 µM); MIC (E. coli (ATCC 10798) [1]; [12]): 3.0 µg/mL (≈ 4.42 µM); MIC [3, 9]: 8 µg/mL (≈ 11.8 µM); concentration required to lower the MIC of erythromycin from 240 µg/mL to 5 µg/mL [4]: 5 µg/mL; MBC (E. coli (ATCC 10798) [2]; [13]): 3 µg/mL
		CO[C@@H]1[C@@H](OC(N)=O)[C@@H](O)[C@H](Oc2ccc3c(O)c(NC(=O)c4ccc(O)c(CC=C(C)C)c4)c(=O)oc3c2C)OC1(C)C [novobiocin, reference compound]								MIC (E. coli (ATCC 10798) [1]; [14]): > 500 µg/mL; MIC [3, 15]: > 500 µg/mL
	140 µg/mL (≈ 267 µM)	CC(O)[C@H]1CC[C@H]2[C@@H]3[C@H](OCCCN)C[C@@H]4C[C@H](OCCCN)CC[C@]4(C)[C@H]3C[C@H](OCCCN)[C@]12C (stereo partly shown) [Compound 11]		20 µg/mL	180 µg/mL	40 µg/mL	0.16	0.29	40 µg/mL	MBC (E. coli (ATCC 10798) [1]; [11]): > 160 µg/mL; MBC (E. coli (ATCC 10798) [1]; [12]): >160 µg/mL; MIC (E. coli (ATCC 10798) [1]; [12]): 140 µg/mL (≈ 267 µM); MBC (E. coli (ATCC 10798) [2]; [13]): > 160 µg/mL; MBC (E. coli (ATCC 10798) [2]; ATCC10798, Table 3, E. coli (ATCC 10798), with novobiocin): 140 µg/mL
		CC[C@H]1OC(=O)[C@H](C)[C@@H](O[C@H]2C[C@@](C)(OC)[C@@H](O)[C@H](C)O2)[C@H](C)[C@@H](O[C@@H]2O[C@H](C)C[C@H](N(C)C)[C@H]2O)[C@](C)(O)C[C@@H](C)C(=O)[C@H](C)[C@@H](O)[C@]1(C)O [erythromycin, reference compound]								MIC (E. coli (ATCC 10798) [1]; [14]): 70 µg/mL (≈ 95.4 µM); MIC [3, 15]: 240 µg/mL (≈ 327 µM); MIC [5]: 30 µg/mL (≈ 40.9 µM)
70 µg/mL (≈ 130 µM)		C[C@H](CO)[C@H]1CC[C@H]2[C@@H]3[C@H](OCCCN)C[C@@H]4C[C@H](OCCCN)CC[C@]4(C)[C@H]3C[C@H](OCCCN)[C@]12C [Compound 108]	140 µg/mL (≈ 260 µM)	4.0 µg/mL	140 µg/mL	12 µg/mL	0.071	0.17		
	4 µg/mL (≈ 3.59 µM)	C[C@H](CCCOCCC[C@@H](C)[C@H]1CC[C@H]2[C@@H]3[C@H](OCCCN)C[C@@H]4C[C@H](OCCCN)CC[C@]4(C)[C@H]3C[C@H](OCCCN)[C@]12C)[C@H]1CC[C@H]2[C@@H]3[C@H](OCCCN)C[C@@H]4C[C@H](OCCCN)CC[C@]4(C)[C@H]3C[C@H](OCCCN)[C@]12C [Compound 12]							1.5 µg/mL	MBC (E. coli (ATCC 10798) [1]; [11]): 4 µg/mL (≈ 3.59 µM); MBC (E. coli (ATCC 10798) [2]; [13]): 2.5 µg/mL
70 µg/mL (≈ 127 µM)		C[C@H](CCO)[C@H]1CC[C@H]2[C@@H]3[C@H](OCCCN)C[C@@H]4C[C@H](OCCCN)CC[C@]4(C)[C@H]3C[C@H](OCCCN)[C@]12C [Compound 109]	120 µg/mL (≈ 217 µM)	4.0 µg/mL	80 µg/mL	15 µg/mL	0.071	0.22		
3 µg/mL (≈ 4.72 µM)		CCCCCOCCC[C@@H](C)[C@H]1CC[C@H]2[C@@H]3[C@H](OCCCN)C[C@@H]4C[C@H](OCCCN)CC[C@]4(C)[C@H]3C[C@H](OCCCN)[C@]12C [Compound 113]	5 µg/mL (≈ 7.86 µM)	0.8 µg/mL	2.0 µg/mL	1.0 µg/mL	0.28	0.27		

SMILES	MIC (E. coli (ATCC 10798) [1]; [7])	MIC (E. coli (ATCC 10798) [1]; [8])	MBC (E. coli (ATCC 10798) [1]; [6])	(a) Concentration required to lower the MIC of erythromycin from 70 to 1 µg/mL (E. coli (ATCC 10798) [2])	(b) MBC with 1 µg/mL erythromycin (E. coli (ATCC 10798) [2])	(d) Concentration required to lower the MIC of novobiocin from >500 to 1 µg/mL (E. coli (ATCC 10798) [2])	FIC^c (FIC values with erythromycin) (E. coli (ATCC 10798) [2])	FIC^c (FIC values with novobiocin) (E. coli (ATCC 10798) [2])	concentration required to lower the MIC of erythromycin from 70 µg/mL to 1 µg/mL (E. coli (ATCC 10798) [2]; [10])	other results
C[C@H](CCCN(C)Cc1ccccc1)[C@H]1CC[C@H]2[C@@H]3[C@H](OCCCCN)C[C@@H]4C[C@H](OCCCCN)CC[C@]4(C)[C@H]3C[C@H](OCCCCN)[C@]12C [Compound 3]		6 µg/mL (≈ 8.44 µM)							1.5 µg/mL	MIC [3, 9]: 16 µg/mL (≈ 22.5 µM); concentration required to lower the MIC of erythromycin from 240 µg/mL to 5 µg/mL [4]: 6 µg/mL
